O=C1OC(=O)c2cc(Cl)ccc21
solubility (mole fraction)
Conditions | 283.15 K | 288.15 K | 293.15 K | 298.15 K | 303.15 K | 308.15 K | 313.15 K | 318.15 K | 323.15 K | 328.15 K
in acetonitrile | 0.102 | 0.121 | 0.143 | 0.167 | 0.194 | 0.221 | 0.249 | 0.277 | 0.304 | 0.331
in cyclohexane | 0.000482 | 0.000684 | 0.000895 | 0.00109 | 0.00139 | 0.00161 | 0.00203 | 0.00246 | 0.00315 | 0.00399
in methanol | 0.0848 | 0.0944 | 0.118 | 0.136 | 0.167 | 0.196 | 0.228 | 0.266 | 0.309 | 0.356
in methyl acetate | 0.134 | 0.163 | 0.19 | 0.216 | 0.241 | 0.269 | 0.296 | 0.33 | 0.362 | 0.407
in tert-amyl alcohol | 0.00738 | 0.00942 | 0.0129 | 0.0166 | 0.0219 | 0.0274 | 0.0376 | 0.0489 | 0.065 | 0.0823
in tetrachloromethane | 0.00888 | 0.0103 | 0.0128 | 0.0142 | 0.0169 | 0.0191 | 0.0212 | 0.0233 | 0.0254 | 0.0274

O=C1OC(=O)c2c(Cl)cccc21
solubility (mole fraction)
Conditions | 283.15 K | 288.15 K | 293.15 K | 298.15 K | 303.15 K | 308.15 K | 313.15 K | 318.15 K | 323.15 K | 328.15 K
in acetonitrile | 0.0676 | 0.0793 | 0.092 | 0.106 | 0.123 | 0.142 | 0.165 | 0.193 | 0.225 | 0.263
in cyclohexane | 0.00042 | 0.000507 | 0.000554 | 0.000764 | 0.000909 | 0.00108 | 0.00136 | 0.00176 | 0.00222 | 0.00277
in methanol | 0.0637 | 0.0698 | 0.0766 | 0.09 | 0.0968 | 0.104 | 0.116 | 0.126 | 0.144 | 0.161
in methyl acetate | 0.0882 | 0.0987 | 0.112 | 0.123 | 0.145 | 0.157 | 0.176 | 0.198 | 0.223 | 0.252
in tert-amyl alcohol | 0.00423 | 0.00548 | 0.00677 | 0.00875 | 0.0113 | 0.0125 | 0.0146 | 0.0184 | 0.0228 | 0.0288
in tetrachloromethane | 0.00307 | 0.004 | 0.00497 | 0.00605 | 0.00729 | 0.00873 | 0.0104 | 0.0125 | 0.0146 | 0.0177

From BigSolDB 2.1
